{"source": "patent US20250295607A1", "about": "“OPHTHALMIC COMPOSITIONS FOR TREATMENT OF OCULAR SURFACE DAMAGE AND SYMPTOMS OF DRYNESS” (Novaliq GmbH, priority 2018, published 2025)", "key": {"[1]": {"system": "subjects with Dry Eye Disease", "test": "Phase 2 multi-center, randomized, double-masked, saline-controlled clinical study (NCT03333057), signs and symptoms overall", "type": "in vivo, human", "method": "A Phase 2, Multi-Center, Randomized, Double-Masked, Saline-Controlled Study to Evaluate the Effect of 1-Perfluorohexyloctane (NOV03) at two different dosing regimens on signs and symptoms of Dry Eye Disease (DED) was conducted. The study was performed at 11 investigational cites in the United States. The study was reviewed and approved by the respective ethics committees and registered at www.clinicaltrials.gov (NCT03333057).\nThe primary objective for this study is to evaluate the efficacy, safety, and tolerability of an ophthalmic composition essentially consisting of 1-perfluorohexyloctane (NOV03) at two different dosing regimens (QID, BID) compared to saline solution in subjects with Dry Eye Disease. The secondary objectives are to compare the effect of an ophthalmic composition essentially consisting of 1-perfluorohexyloctane (NOV03) and saline solution at two different dosing regimens on signs and symptoms of Dry Eye Disease and to evaluate the pharmacokinetics after 57 days dosing.\nSubjects must: • a. Be at least 18 years of age. • b. Provide written informed consent. • c. Have a subject reported history of Dry Eye Disease in both eyes for at least 6 months prior to Visit 0. • d. […] Have Meibomian Gland Dysfunction (MGD) defined as MGD score≥3 (secretion of 5 central glands on lower eyelid will be evaluated, each will be scored from 0-3; 0=normal, 1=thick/yellow, whitish, particulate 2=paste; 3=none/occluded; total score will range from 0-15) at Visit 0 and Visit 1. • h. […]\nScreening (Visit 0); Within 14 days before Visit 1 Subjects will be required to sign an Informed Consent before completing any study related procedure. At the screening visit, vital signs will be assessed and the subject will give blood for safety laboratory tests. […]\nBaseline Visit Day 1 (Visit 1): On Day 1 (Visit 1), eligible subjects will be evaluated for baseline signs and symptoms of dry eye disease. […]\nVisits 2-4; Subjects will return to the clinic on Day 15±1 (Visit 2), 29±2 (Visit 3), and 57±2 (Visit 4) to be evaluated for signs and symptoms of dry eye disease. […]"}, "[2]": {"system": "cornea of subjects with Dry Eye Disease", "test": "Corneal fluorescein staining, NEI grading scale (ocular surface damage)", "type": "in vivo, human", "excerpt": "A Wratten #12 yellow filter will be used to enhance the ability to grade fluorescein staining. The staining will be graded with the NEI (National Eye Institute) Grading\nScale. Only the staining of the cornea will be graded. Digital images of fluorescein staining may be taken for digital analysis.\nBased on the NEI/Industry Workshop Scale, the grade of the ocular surface damage for each eye is scored for each of the five regions of the cornea based on measuring fluorescein uptake.\nGrade 0 will be specified when no fluorescein staining is present. Grades 1, 2 and 3 define an increasing density and degree of observed fluorescein staining, The maximum total score for each eye is 15."}, "[3]": {"system": "subjects with Dry Eye Disease", "test": "Visual Analog Scale (VAS) Eye Dryness Score questionnaire", "type": "in vivo, human", "conditions": "QID", "method": "An Eye Dryness Score was determined based on a 10-item questionnaire provided to subjects, where subjects were asked to rate their ocular symptoms (both eyes simultaneously) due to ocular dryness by placing a vertical mark on a horizontal line scale to indicate the level of discomfort (0% corresponds to “no dryness” and 100% corresponds to “maximal dryness”). Subjects are asked about the severity of dry eye symptoms, namely the symptoms of dryness representing the first 8 questions of the VAS questionnaire corresponding to: dryness (corresponding to the first question in the VAS questionnaire, and also referred to in the text and in the graphs as “severity of dryness”; with the terms “dryness” and “severity of dryness” being used interchangeably herein as a dry eye symptom designation, sticky feeling, burning/stinging, foreign body sensation, itching, blurred vision, sensitivity to light, and pain.\nSubjects are also asked about their awareness of their dry eye symptoms and frequency of their dry eye symptoms, namely questions 9-10 of the VAS questionnaire. The rating for these questions is indicated by the subject by placing a vertical mark on a horizontal line scale to indicate the percentage of time of awareness or frequency, with 0% corresponding to ‘never’ and 100% corresponding to ‘all of the time’."}, "[4]": {"system": "subjects with Dry Eye Disease", "test": "Ocular Surface Disease Index (OSDI) questionnaire", "type": "in vivo, human", "excerpt": "The Ocular Surface Disease Index (OSDI©)) is perhaps the most frequently used survey instrument for the assessment of ocular surface disease severity in dry eye research. The OSDIC was created by the Outcomes Research Group at Allergan Inc in order to quickly assess the symptoms of ocular irritation in dry eye disease and how they affect functioning related to vision. This 12-item questionnaire assesses dry eye symptoms and the effects it has on vision-related function in the past week of the patient's life. The questionnaire has 3 subscales: ocular symptoms, vision-related function, and environmental triggers. Patients rate their responses on a 0 to 4 scale with 0 corresponding to “none of the time” and 4 corresponding to “all of the time.” A final score is calculated which ranges from 0 to 100.\nThe questions assess the following: dry eye symptoms experienced by the patient within past week: sensitivity to light, gritty sensation, pain or sore eyes, blurriness, and poor vision; vision-related function, in terms of problems in the past week with regards to: reading, driving at night, working on a computer or bank machine, watching television; and in terms of environmental factors or triggers i.e. discomfort experienced in the past week during: windy conditions, places with low humidity, and areas with air condition.\nSubtotals are obtained for all the questions, as well as the total number of questions answered. The OSDI index is assessed based on a scale of 0 to 100, with higher scores representing a greater disability. The OSDI index is calculated from the sum of the scores multiplied by a factor of 25, over the total number of questions answered. Higher scores represent a greater degree/severity and impact of dry eye disease."}, "Density": {"test": "Density", "type": "physicochemical"}, "[5]": {"conditions": "QID, after 2 weeks of treatment"}, "[6]": {"conditions": "QID, significant also at 4 weeks, 8 weeks"}}, "data": [{"smiles": "CCCCCCCCC(F)(F)C(F)(F)C(F)(F)C(F)(F)C(F)(F)C(F)(F)F", "note": "[NOV03, 1-perfluorohexyloctane]", "values": [{"measurement": "signs and symptoms of dry eye disease", "setting": "[1]; 4 times daily, single drop of 10-12 μl, highly symptomatic DED population with significant MGD involvement", "result": "relevant and statistically significant improvements"}, {"measurement": "benefit in patient population by baseline characteristics", "setting": "[1]; QID, OSDI between 38 and 72, TBUT between 2.1 and 3.9 seconds or MGD score between 4.0 and 11.2, and/or total corneal fluorescein staining between 4.8 and 9.2", "result": "beneficial"}, {"measurement": "benefit in patients meeting one or more baseline criteria", "setting": "[1]; QID, TBUT equal or lower than 3, OSDI higher than 57, total corneal fluorescein staining between 5 and 9, MGD score equal or higher than 7, Schirmer I Test greater or equal than 10 mm", "result": "especially benefitted"}, {"measurement": "reduction of ocular surface damage, superior corneal region", "setting": "[2]; QID vs saline", "result": "did not show such clear improvement"}, {"measurement": "reduction of ocular surface damage, central corneal region", "setting": "[2]; QID vs saline, 2, 4, 8 weeks", "result": "clear improvements"}, {"measurement": "reduction of ocular surface damage, inferior corneal region", "setting": "[2]; QID vs saline, 2, 4, 8 weeks", "result": "clear improvements"}, {"measurement": "reduction of ocular surface damage, nasal corneal region", "setting": "[2]; QID vs saline, 2, 4, 8 weeks", "result": "clear improvements"}, {"measurement": "reduction of ocular surface damage, temporal corneal region", "setting": "[2]; QID vs saline, 2, 4, 8 weeks", "result": "clear improvements"}, {"measurement": "patients with improvement of ≥1 grade in central corneal staining", "setting": "[2]; [5]", "result": 39, "unit": "%"}, {"measurement": "patients with improvement of ≥3 grades in total corneal staining", "setting": "[2]; [5]", "result": 32, "unit": "%"}, {"measurement": "patients with improvement of ≥1 grade in central corneal staining", "setting": "[2]; QID, after 8 weeks", "result": 50, "unit": "%"}, {"measurement": "patients with improvement of ≥3 grades in total corneal staining", "setting": "[2]; QID, after 8 weeks", "result": 42, "unit": "%"}, {"measurement": "total corneal fluorescein staining (primary efficacy endpoint), reduction of ocular surface damage of the total corneal region", "setting": "[2]; QID, at 8 weeks, vs saline", "result": "met its prespecified primary efficacy endpoint"}, {"measurement": "start of treatment effect relating to the signs", "setting": "[2]; [6]", "result": 2, "unit": "weeks"}, {"measurement": "VAS pain", "setting": "[3]; at the 4 week timepoint, higher variability", "result": "did not improve"}, {"measurement": "VAS awareness of dryness", "setting": "[3]; over the placebo group", "result": "highly statistical significant improvement"}, {"measurement": "VAS blurred vision", "setting": "[3]; over the placebo group", "result": "highly statistical significant improvement"}, {"measurement": "VAS burning/stinging", "setting": "[3]; over the placebo group", "result": "highly statistical significant improvement"}, {"measurement": "VAS foreign body sensation", "setting": "[3]; over the placebo group", "result": "highly statistical significant improvement"}, {"measurement": "VAS frequency of dryness", "setting": "[3]; over the placebo group", "result": "highly statistical significant improvement"}, {"measurement": "VAS itching", "setting": "[3]; over the placebo group", "result": "highly statistical significant improvement"}, {"measurement": "VAS sensitivity to light", "setting": "[3]; over the placebo group", "result": "highly statistical significant improvement"}, {"measurement": "VAS severity of dryness", "setting": "[3]; over the placebo group", "result": "highly statistical significant improvement"}, {"measurement": "VAS sticky feeling", "setting": "[3]; over the placebo group", "result": "highly statistical significant improvement"}, {"measurement": "VAS severity of dryness in patients with Schirmer I Test of greater or equal than 10 mm", "setting": "[3]; subpopulation with normal tear production, DED associated with MGD, 8 weeks", "result": "significant change from baseline"}, {"measurement": "start of treatment effect relating to the VAS symptoms", "setting": "[3]; significant also at 4 weeks, 8 weeks", "result": 2, "unit": "weeks"}, {"measurement": "OSDI blurred vision", "setting": "[4]; QID vs saline", "result": "clear improvements"}, {"measurement": "OSDI eyes feeling gritty", "setting": "[4]; QID vs saline", "result": "clear improvements"}, {"measurement": "OSDI painful or sore eyes", "setting": "[4]; QID vs saline", "result": "clear improvements"}, {"measurement": "OSDI poor vision", "setting": "[4]; QID vs saline", "result": "clear improvements"}, {"measurement": "OSDI problems with driving at night", "setting": "[4]; QID vs saline", "result": "clear improvements"}, {"measurement": "OSDI problems with watching TV", "setting": "[4]; QID vs saline", "result": "clear improvements"}, {"measurement": "OSDI reading problems", "setting": "[4]; QID vs saline", "result": "clear improvements"}, {"measurement": "OSDI sensitivity to light", "setting": "[4]; QID vs saline", "result": "clear improvements"}, {"measurement": "OSDI uncomfortable in areas that are air conditions", "setting": "[4]; QID vs saline", "result": "clear improvements"}, {"measurement": "OSDI uncomfortable in areas with low humidity", "setting": "[4]; QID vs saline", "result": "clear improvements"}, {"measurement": "OSDI uncomfortable under windy conditions", "setting": "[4]; QID vs saline", "result": "clear improvements"}, {"measurement": "OSDI problems with working with a computer or bank machine (ATM)", "setting": "[4]; QID, at the 4 and 8-week timepoint, higher data variability", "result": "did not improve"}, {"measurement": "total OSDI score", "setting": "[4]; QID, over the placebo group", "result": "highly statistical significant improvement"}, {"measurement": "start of treatment effect relating to the OSDI symptoms", "setting": "[4]; [6]", "result": 2, "unit": "weeks"}, {"measurement": "density", "setting": "Density", "result": 1.35, "unit": "g/mL"}, {"measurement": "density (d)", "setting": "Density", "result": 1.35, "unit": "g/mL"}]}]}
